In patent US20250127918A1, “SITE-SELECTIVE CONJUGATION OF A PHARMACEUTICAL AGENT TO AN ANTIBODY USING AN AFFINITY PEPTIDE” (priority 2023, published 2025):

Tests used:
Format in all cases: in vivo, mouse
WT Swiss mice [1] = assay: Intraperitoneal glucose tolerance test (Ip-GTT) in WT Swiss mice; settings: Ip-GTT after injection
Method: (§1) Six hours before the Ip-GTT, the mice were fasted by removing the food, the enrichment, and by placing them in a new cage to avoid coprophagy. Access to water was, however kept free and ad libitum for the entire experiment. Five minutes before the Ip-GTT, basal glycemia was measured by taking a small drop of blood using tail pricks.

WT Swiss mice [2] = assay: Toxicity / safety profile of GLP1 conjugates in WT Swiss mice
Method: All animal experiments were performed under an MIT institute approved IACUC protocol following federal, state, and local guidelines for the care and use of animals (protocol number #0821-058-24). The studies were performed on 30-35 g (5-8 weeks-old) healthy female Swiss mice, purchased from The Jackson Laboratory (MA, USA). Mice were housed with free access to food and water ad libitum unless stated otherwise for the need of the experiment. […] Intraperitoneal injections (IP) were performed on vigil mice, in the lower right abdominal quadrant. For blood collection, mice were either punctured in the heart (terminal procedure), or gently pressed at the tail following tail pricks (vigil). […] The animals were sacrificed by CO2 inhalation followed by cervical dislocation. All compounds injected in mice were either USP grade, sterile, or filtered using 0.22 μm.
as §1
In the other cohorts, 2a,3a was SC administered following either 10 mg/kg (25 nmol), 30 mg/kg (75 nmol), or three injections of 10 mg/kg, 1 per week for 3 weeks (30 mg/kg total, 75 nmol total).
(§2) All animal experiments were performed under an MIT institute approved IACUC protocol following federal, state, and local guidelines for the care and use of animals (protocol number #0821-058-24). The studies were performed either on 35-45 g (12-16 weeks-old) wild-type female Swiss mice, 25-30 g (14-20 weeks-old) male and female C57BL/6J mice, or 55-70 g (16 weeks-old) male and female obese Lep^ob/ob mice, all purchased from The Jackson Laboratory (MA, USA). Mice were housed with free access to normal food diet and water ad libitum unless stated otherwise for the need of the experiment. […] Intraperitoneal injections (IP) were performed on non-anesthetized mice, in the lower right abdominal quadrant. Blood collection for the ELISA assays and biodistributions was performed as a terminal procedure by heart puncture immediately after the sacrifice. For Ip-GTT and Ip-ITT mice were restrained and gently pressed at the tail following tail pricks. The animals were sacrificed by CO2 inhalation followed by cervical dislocation. All compounds injected in mice were either USP grade, sterile, or filtered using 0.22 μm.

Lep^ob/ob mice = assay: Safety profile of GLP-1a conjugates in Lep^ob/ob mice; settings: 10 mg/kg; for Number of mice showing significant aggressiveness / Number of mice with Piloerection, Moderate: cohort of 3 mice
Method: In Lep^ob/ob obese mice, two routes were assessed for the 10 mg/kg dose: SC and IP (Table 21). […] Investigations about the PD of 2a,3a following SC injection of 10 mg/kg were pursued in both mice models.
as §2

Structure (SMILES): CC[C@H](C)[C@H](NC(=O)[C@H](Cc1ccccc1)NC(=O)[C@H](CCC(=O)O)NC(=O)[C@H](CCCCNC(=O)COCCOCCNC(=O)COCCOCCNC(=O)CC[C@H](NC(=O)CCCCCCCCCCCCCCCCC(=O)O)C(=O)O)NC(=O)[C@H](C)NC(=O)[C@H](C)NC(=O)[C@H](CCC(N)=O)NC(=O)CNC(=O)[C@H](CCC(=O)O)NC(=O)[C@H](CC(C)C)NC(=O)[C@H](Cc1ccc(O)cc1)NC(=O)[C@H](CO)NC(=O)[C@H](CO)NC(=O)[C@@H](NC(=O)[C@H](CC(=O)O)NC(=O)[C@H](CO)NC(=O)[C@@H](NC(=O)[C@H](Cc1ccccc1)NC(=O)[C@@H](NC(=O)CNC(=O)[C@H](CCC(=O)O)NC(=O)C(C)(C)NC(=O)[C@@H](N)Cc1cnc[nH]1)[C@@H](C)O)[C@@H](C)O)C(C)C)C(=O)N[C@@H](C)C(=O)N[C@@H](Cc1c[nH]c2ccccc12)C(=O)N[C@@H](CC(C)C)C(=O)N[C@H](C(=O)N[C@@H](CCCNC(=N)N)C(=O)NCC(=O)N[C@@H](CCCNC(=N)N)C(=O)NCC(=O)O)C(C)C [Semaglutide]
- Hypoglycemia (WT Swiss mice [1]): induce hypoglycemia
- Number of mice with Aggressiveness (WT Swiss mice [2]; SC 0.5 mg/kg, cohort of 5 mice): 0
- Number of mice with Piloerection Mild (WT Swiss mice [2]; SC 0.5 mg/kg, cohort of 5 mice): 0
- Number of mice with Piloerection Severe (WT Swiss mice [2]; SC 0.5 mg/kg, cohort of 5 mice): 0
- Number of mice with Piloerection, Moderate (WT Swiss mice [2]; SC 0.5 mg/kg, cohort of 5 mice): 0
- Number of mice with Piloerection Mild (WT Swiss mice [2]; SC 3 mg/kg, cohort of 5 mice): 0
- Number of mice with Piloerection Mild (WT Swiss mice [2]; SC 10 mg/kg, cohort of 15 mice): 0
- Number of mice with Piloerection, Moderate (WT Swiss mice [2]; SC 10 mg/kg, cohort of 15 mice, time per cell footnote (¤ over 48 h)): 0
- Tolerability, both routes (SC and IP) (Lep^ob/ob mice; Lep^ob/ob obese mice): significantly impact the mice behavior and induce hypoglycemia
- Mean fasting blood glucose (Lep^ob/ob mice; female Lep^ob/ob mice, IP): 104 ± 6 mg/dL
- Number of mice showing significant aggressiveness (Lep^ob/ob mice; female Lep^ob/ob mice, IP): 3
- Mean fasting blood glucose (Lep^ob/ob mice; female Lep^ob/ob mice, SC): 97 ± 7 mg/dL
- Number of mice showing significant aggressiveness (Lep^ob/ob mice; female Lep^ob/ob mice, SC): 3
- Number of mice with Piloerection, Moderate (Lep^ob/ob mice; female Lep^ob/ob mice, SC): 3
- Mean fasting blood glucose (Lep^ob/ob mice; male Lep^ob/ob mice, IP): 111 ± 14 mg/dL
- Number of mice showing significant aggressiveness (Lep^ob/ob mice; male Lep^ob/ob mice, IP): 3
- Mean fasting blood glucose (Lep^ob/ob mice; male Lep^ob/ob mice, SC): 75 ± 12 mg/dL
- Number of mice showing significant aggressiveness (Lep^ob/ob mice; male Lep^ob/ob mice, SC): 3
- Number of mice with Piloerection, Moderate (Lep^ob/ob mice; male Lep^ob/ob mice, SC): 3
